According to publication PMC4893628, “Chalcone-based Selective Inhibitors of a C4 Plant Key Enzyme as Novel Potential Herbicides” (Scientific Reports, 2016):
Where two headings read alike, the source gives them in different places. Values belong to the compound of their own block, whether it stands above or below them.

Experiments:
[1] = molecular target: T1, F. pringlei PEPC (Flaveria pringlei, UniProt Q01647); assay: PEPC coupled spectrophotometric assay, C3 PEPC; type: biochemical
T1 construct: the full-length ppcA gene of PEPC from F. trinervia (EMBL-Bank X61304) and F. pringlei (EMBL-Bank Z48966) were cloned in pETEV16b; made in house; host or cells: Escherichia coli BL21-Gold(DE3)
T1 sequence (Q01647 1-967): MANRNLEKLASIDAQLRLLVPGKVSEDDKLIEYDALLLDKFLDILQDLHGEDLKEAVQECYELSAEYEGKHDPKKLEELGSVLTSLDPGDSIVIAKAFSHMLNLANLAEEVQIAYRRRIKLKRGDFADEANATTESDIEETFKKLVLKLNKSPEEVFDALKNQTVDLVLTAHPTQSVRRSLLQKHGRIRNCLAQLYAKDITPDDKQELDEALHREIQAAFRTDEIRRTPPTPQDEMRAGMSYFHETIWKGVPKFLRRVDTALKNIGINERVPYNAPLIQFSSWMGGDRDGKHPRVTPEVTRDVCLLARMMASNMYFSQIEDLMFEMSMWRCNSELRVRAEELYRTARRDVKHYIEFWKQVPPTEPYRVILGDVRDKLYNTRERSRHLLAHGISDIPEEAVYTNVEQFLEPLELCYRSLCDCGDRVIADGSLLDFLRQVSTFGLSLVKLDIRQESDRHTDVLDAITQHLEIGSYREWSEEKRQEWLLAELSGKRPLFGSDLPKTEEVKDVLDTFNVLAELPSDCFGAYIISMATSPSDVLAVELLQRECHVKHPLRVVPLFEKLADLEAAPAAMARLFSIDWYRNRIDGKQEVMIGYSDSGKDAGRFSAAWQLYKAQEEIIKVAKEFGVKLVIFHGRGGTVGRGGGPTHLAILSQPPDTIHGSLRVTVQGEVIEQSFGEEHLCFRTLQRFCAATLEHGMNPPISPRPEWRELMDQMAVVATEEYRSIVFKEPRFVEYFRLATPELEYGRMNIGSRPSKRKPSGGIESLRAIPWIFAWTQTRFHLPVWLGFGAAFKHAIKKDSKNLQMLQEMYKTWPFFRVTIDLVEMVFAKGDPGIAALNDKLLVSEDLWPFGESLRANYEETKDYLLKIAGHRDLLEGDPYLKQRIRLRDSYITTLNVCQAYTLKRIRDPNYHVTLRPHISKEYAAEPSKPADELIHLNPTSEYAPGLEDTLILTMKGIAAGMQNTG
Experimental: The IC50 values of small molecule compounds on F. pringlei and F. trinervia PEPCs were determined using PEPC coupled spectrophotometric assay. The amount of NADH oxidized by NADH-malate dehydrogenase was measured by the decrease in absorbance at 340 nm in a Beckman DU-800 spectrophotometer, thus the value is in proportion to the corresponding substrate conversion of the enzyme. The reaction mixture included the PEPC enzymes (0.05 U), NADH (150 μM), malate dehydrogenase (2 U) and different concentration of compounds in the buffer containing 50 mM HEPES/KOH pH 7.5, 10 mM MgCl2, 10 mM KHCO3 in a final volume of 600 μl at 25 °C. The reactions were started by adding two folds of the Km value of PEP for each enzyme. The data were analyzed using GraFit (Erithacus Software, UK).

[2] = test system: Pseudomonas putida KT2440; assay: Bacterial growth in microscale cultivation, P. putida; type: cell-based; conditions: for activity at 55 µM / activity at 550 µM / activity at 5 µM / activity at 50 µM / activity at 500 µM: Pseudomonas putida; for activity at 55 µM / activity at 550 µM / Lag Phase: relative to control
Experimental: The following bacteria were cultivated in the presence of trans-chalcone derived inhibitors: Corynebacterium glutamicum ATCC13032[43], Escherichia coli K-12 MG1655[44], Pseudomonas putida KT2440[45], and Bacillus subtilis 168[46]. The growth of these bacteria was monitored in flower-well plates shaken at 1200 rpm as backscatter at 620 nm (gain 20) using a BioLector® microscale cultivation system (m2p labs, Baesweiler, Germany). For further experimental details please refer to the Supplementary Information.
medium or the appropriate minimal medium and shaken at 140 rpm overnight. For inoculation of
the main culture, cells equivalent to an optical density at 600 nm of 0.5 (C. glutamicum, E. coli,
and P. putida) or 0.25 (B. subtilis) in 800 µL medium were washed and resuspended in fresh
media. Inhibitor substances were dissolved in DMSO and added to the media to a final
Since the least polar trans-chalcone and 2’-hydroxychalcone precipitated in the growth media at
the highest concentrations, the maximal concentration of these compounds was reduced to 400
µM and 100 µM, respectively. The final backscatter at 620 nm, the growth rate (h-1), and the
duration of the lag phase of all cultures were determined in a BioLector microscale cultivation
system in comparison to negative controls supplemented with the solvent DMSO. A longer lag

- IC50 ([1]; read-out: IC50 F. pringlei PEPC): 105 ± 4.6 µM
Structure (SMILES): O=C(/C=C/c1ccccc1)c1cc(O)ccc1O [Compound 5, 2′,5′-Dihydroxychalcone]
- activity at 55 µM ([2]; KT2440, complex medium, 55 µM, read-out: Final Backscatter): 98.5%
- activity at 55 µM ([2]; KT2440, complex medium, 55 µM, read-out: Growth rate): 105%
- activity at 550 µM ([2]; KT2440, complex medium, 550 µM, read-out: Final Backscatter): 94.4%
- activity at 550 µM ([2]; KT2440, complex medium, 550 µM, read-out: Growth rate): 118%
- activity at 55 µM ([2]; KT2440, minimal medium, 55 µM, read-out: Final Backscatter): 95.5%
- activity at 55 µM ([2]; KT2440, minimal medium, 55 µM, read-out: Growth rate): 99.4%
- activity at 550 µM ([2]; KT2440, minimal medium, 550 µM, read-out: Final Backscatter): 96.7%
- activity at 550 µM ([2]; KT2440, minimal medium, 550 µM, read-out: Growth rate): 101%
- Lag Phase ([2]; complex medium, 55 µM): 99,1%
- Lag Phase ([2]; complex medium, 550 µM): 105,0%
- Lag Phase ([2]; minimal medium, 55 µM): 101,0%
- Lag Phase ([2]; minimal medium, 550 µM): 98,0%

Structure (SMILES): O=C(/C=C/c1ccccc1)c1ccccc1O [Compound 2, 2′-Hydroxychalcone]
- IC50 ([1]; IC50 F. pringlei PEPC): 76.3 ± 1.9 µM
- activity at 5 µM ([2]; KT2440, read-out: Final Backscatter, complex medium, 5 µM, relative to control): 98%
- activity at 50 µM ([2]; KT2440, read-out: Final Backscatter, complex medium, 50 µM, relative to control): 101%
- activity at 500 µM ([2]; KT2440, read-out: Final Backscatter, complex medium, 500 µM, relative to control): 102%
- activity at 5 µM ([2]; KT2440, read-out: Final Backscatter, minimal medium, 5 µM, relative to control): 96.6%
- activity at 50 µM ([2]; KT2440, read-out: Final Backscatter, minimal medium, 50 µM, relative to control): 98%
- activity at 500 µM ([2]; KT2440, read-out: Final Backscatter, minimal medium, 500 µM, relative to control): 111%
- activity at 5 µM ([2]; KT2440, read-out: Growth rate, complex medium, 5 µM, relative to control): 103%
- activity at 50 µM ([2]; KT2440, read-out: Growth rate, complex medium, 50 µM, relative to control): 102%
- activity at 500 µM ([2]; KT2440, read-out: Growth rate, complex medium, 500 µM, relative to control): 189%
- activity at 5 µM ([2]; KT2440, read-out: Growth rate, minimal medium, 5 µM, relative to control): 96%
- activity at 50 µM ([2]; KT2440, read-out: Growth rate, minimal medium, 50 µM, relative to control): 99.3%
- activity at 500 µM ([2]; KT2440, read-out: Growth rate, minimal medium, 500 µM, relative to control): 153%
- Lag Phase ([2]; complex medium, 5 µM): 101,0%
- Lag Phase ([2]; complex medium, 50 µM): 102,6%
- Lag Phase ([2]; complex medium, 500 µM): 110,8%
- Lag Phase ([2]; minimal medium, 5 µM): 100,0%
- Lag Phase ([2]; minimal medium, 50 µM): 100,6%
- Lag Phase ([2]; minimal medium, 500 µM): 100,0%
